Series [1] relates to rat sandwich-cultured hepatocytes. The experiment in a line: in vitro. Format: in vitro ADME. As for the experimental part:
Sandwich-cultured rat hepatocytes (SCHs) were established according to previously described methods with minor modifications. Primary rat hepatocytes were isolated from male Sprague Dawley® (SD) rats (220-270 g) using a collagenase perfusion as described previously and plated at a density of 7.4×10^5 cells/2 ml/well onto six-well BioCoat plates. Approximately 24 hours later, hepatocytes were overlaid with 2 ml of 0.25 mg/ml BD Matrigel basement membrane matrix in Dulbecco's modified Eagle medium (DMEM) containing 1% volume by volume percentage (v/v) insulin/transferrin/selenium culture supplement, […] dexamethasone, 2 mM L-glutamine, 1% (v/v) minimum essential medium nonessential amino acids, 1% penicillin-streptomycin. Hepatocytes were cultured for 4 days to allow extensive formation of canalicular networks between cells before experimentation and the medium was changed daily.
Sandwich-cultured hepatocytes (SCHs) were pre-incubated in 2 milliliters (ml) of warm Hank's Balanced Salt Solution (HBSS) with or without Ca^2+ at 37° C. for 15 minutes; the tight junctions of the bile canaliculi open temporally after exposure to HBSS without Ca^2+. Subsequently, cells were incubated at 37° C. for 20 minutes with 1.5 ml of standard HBSS containing silybin (10 μM), or MK 571 (50 μM) as a positive control, or baicalein (25, 15.8, 5, 1.58, 0.5, 0.16 μM), or tangeretin (25, 15.8, 5, 1.58, 0.5 μM). After 20 min, cells were washed three times with ice-cold standard HBSS. The cell samples were lysed by sonication in 1 ml of water for 5 seconds with the ultrasonic cell disruption system (SONICS & […], INC., Newtown, Conn., USA). Conjugated silybin and unconjugated (free) silybin were quantified by high-performance liquid chromatography-tandem mass spectrometry (HPLC-MS/MS). Transport function was normalized to the protein content of the hepatocytes which was evaluated by bicinchoninic acid (BCA) protein assay (Pierce Chemical, Rockford, Ill.). The biliary excretion index (BEI; %) and in vitro biliary clearance (Clbiliary; ml/min/kg) were calculated by using B-CLEAR technology (Qualyst, Inc., Research Triangle Park, N.C.) based on the following equations: […]

The next series relates to Caco-2 cell monolayers. The series can be described thus: Bidirectional transport across Caco-2 cell monolayers. The following applies: for lowest effective dosage for inhibiting efflux transport of silybin: silybin 10 μM; for PA-B: human, Caco-2, 180 min; for mean efflux ratio (PB-A/PA-B): silybin alone, no inhibitor. Here is the method:
Human colorectal adenocarcinoma-2 (Caco-2) cells was obtained from American Type Culture Collection (Manassas, Va.) and frozen at −80° C. For transport study, cells were cultured at 37° C./5% CO2 in Dulbecco's modified Eagle's medium supplemented with 10% fetal bovine serum, 1% nonessential amino acids, and 1% penicillin-streptomycin. […] The culture medium was changed 24 hours after seeding to remove cell debris and dead cells; after which the medium was changed on alternate days. Monolayers were used for transport assays between 21 and 23 days for Caco-2 cells. Prior to transport study, cell monolayers were certified based on internal criteria on transepithelial electrical resistance (TEER) values.
Prior to transport study, cell monolayers were certified based on our internal criteria on transepithelial electrical resistance (TEER) values, and only monolayers that met the acceptance criteria (transepithelial electrical resistance >500 Ω·cm^2 for Caco-2 cells and >200 Ω·cm^2 for MDCK cells) were selected for transport studies.
Bidirectional transport assays in human colorectal adenocarcinoma 2 (Caco-2) and Madin-Darby canine kidney II (MDCK II) was carried out by dosing substrates in assay buffer to either the apical chamber (A-to-B) or the basolateral chamber (B-to-A); cells were then incubated at 37° C. with shaking at 50 rotations per minute (rpm), and 100 μl samples were collected at 30, 60, 90, 120 and 180 minutes from the basolateral chamber to study the drug transport of AP to BL, or apical chamber to study the drug transport of BL to AP. Cell monolayers were then washed twice with ice-cold assay buffer and lysed with methanol on ice for 10 minutes. For inhibition studies, Caco-2 or MDCK II cell monolayers were pre-incubated with an inhibitor in both apical and basolateral chambers for 30 minutes, and bidirectional transport of 10 μM silybin was conducted in the absence (control) or presence of the inhibitor in both chambers. […] For fluorescence intensity detection, samples collected from AP or BL side were immediately detected in 96 well black plate by Microplate ultraviolet-visible spectroscopy (UV/VIS) spectrophotometer (TECAN infinite M200 PRO, Männedorf, Switzerland). In all cases, each determination was performed in triplicate.
The apparent permeability coefficients (Papp) were calculated as Papp=dQ/dt×1/(C“0”A) where dQ/dt (mM/sec) is the rate of permeation of the drug across the cells, C0 (millimolar (mM)) is the donor compartment concentration at time zero and A (cm^2) is the area of the cell monolayer. C0 is obtained from analysis of the dosing solution at the start experiment. Efflux Ratio (ER)=Papp (B to A)/Papp (A to B), while Papp (B−A) is the Papp value measured in the B to A direction, and Papp (A−B) is the Papp value measured in the A to B direction. 1.5 Preparation of Rat Sandwich-Cultured Hepatocytes
(Caco-2 monolayers are a common model of the intestinal barrier.)

The next series has as its system MDCKII-WT cells. Format: in vitro ADME, canine. The following applies: for mean net efflux ratio: MDCK. As for the experimental part: In all cases, each determination was performed in triplicate.
1.5 Preparation of Rat Sandwich-Cultured Hepatocytes

The target in another series is MDR1 (P-gp) (Homo sapiens, UniProt P08183). The series can be described thus: Transport of silybin across MDCKII-MDR1 cells. The following applies: for net efflux ratio: absence of any inhibitor. As for the experimental part: Parental Madin-Darby canine kidney II (MDCKII), multi-drug resistance gene 1-Madin-Darby canine kidney II (MDR1-MDCKII), breast cancer resistance protein-Madin-Darby canine kidney II (BCRP-MDCKII), and multi-drug resistance protein 2-Madin-Darby canine kidney II (MRP2-MDCKII) cells were kindly provided by the Netherlands Cancer Institute (Amsterdam, Netherlands) and frozen at −80° C. The MDCKII cells were cultured at 37° C./5% CO2 in Dulbecco's modified Eagle's medium supplemented with 10% fetal bovine serum, 1% nonessential amino acids, and 2% penicillin-streptomycin. The cells were seeded on transwell inserts (Corning Inc.) at a density of 2.0×10^5 cells/cm^2 and grown for 4-5 days to form confluent monolayers. […]
Sequence of MDR1 (P-gp) (P08183 whole entry): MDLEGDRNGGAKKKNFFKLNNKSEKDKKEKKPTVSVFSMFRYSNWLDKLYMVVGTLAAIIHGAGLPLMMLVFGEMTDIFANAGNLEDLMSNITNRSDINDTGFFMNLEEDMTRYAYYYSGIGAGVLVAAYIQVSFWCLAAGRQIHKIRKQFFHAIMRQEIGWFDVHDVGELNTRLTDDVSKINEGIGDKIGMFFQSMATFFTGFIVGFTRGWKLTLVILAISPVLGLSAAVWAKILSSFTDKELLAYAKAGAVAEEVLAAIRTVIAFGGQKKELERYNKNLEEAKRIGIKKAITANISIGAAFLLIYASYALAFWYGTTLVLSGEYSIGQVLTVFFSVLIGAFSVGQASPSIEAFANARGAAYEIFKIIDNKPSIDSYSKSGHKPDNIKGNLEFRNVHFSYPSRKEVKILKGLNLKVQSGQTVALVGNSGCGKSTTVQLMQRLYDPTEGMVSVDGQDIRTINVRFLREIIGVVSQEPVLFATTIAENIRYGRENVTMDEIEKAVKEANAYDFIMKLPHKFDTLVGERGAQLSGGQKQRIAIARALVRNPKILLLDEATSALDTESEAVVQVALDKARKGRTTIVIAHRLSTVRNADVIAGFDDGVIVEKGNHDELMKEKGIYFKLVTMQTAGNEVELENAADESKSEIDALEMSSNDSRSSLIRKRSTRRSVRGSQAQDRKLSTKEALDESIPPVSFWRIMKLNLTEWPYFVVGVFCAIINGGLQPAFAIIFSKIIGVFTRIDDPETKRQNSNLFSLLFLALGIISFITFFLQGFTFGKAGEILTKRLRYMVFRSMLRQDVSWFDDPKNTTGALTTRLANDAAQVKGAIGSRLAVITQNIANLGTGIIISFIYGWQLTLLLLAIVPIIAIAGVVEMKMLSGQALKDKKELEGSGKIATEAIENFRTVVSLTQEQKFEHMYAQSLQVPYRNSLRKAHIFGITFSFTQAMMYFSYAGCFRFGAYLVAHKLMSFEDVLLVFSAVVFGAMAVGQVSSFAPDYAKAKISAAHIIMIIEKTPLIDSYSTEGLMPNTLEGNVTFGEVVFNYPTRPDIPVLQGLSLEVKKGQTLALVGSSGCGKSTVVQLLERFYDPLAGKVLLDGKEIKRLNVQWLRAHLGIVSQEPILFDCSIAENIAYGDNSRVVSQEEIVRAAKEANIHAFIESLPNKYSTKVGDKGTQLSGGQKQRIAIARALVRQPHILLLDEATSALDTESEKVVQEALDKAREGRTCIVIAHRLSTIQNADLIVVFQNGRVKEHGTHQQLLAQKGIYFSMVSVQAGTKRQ
Bidirectional transport assays in human colorectal adenocarcinoma 2 (Caco-2) and Madin-Darby canine kidney II (MDCK II) was carried out by dosing substrates in assay buffer to either the apical chamber (A-to-B) or the basolateral chamber (B-to-A); cells were then incubated at 37° C. with shaking at 50 rotations per minute (rpm), and 100 μl samples were collected at 30, 60, 90, 120 and 180 minutes from the basolateral chamber to study the drug transport of AP to BL, or apical chamber to study the drug transport of BL to AP. […] For fluorescence intensity detection, samples collected from AP or BL side were immediately detected in 96 well black plate by Microplate ultraviolet-visible spectroscopy (UV/VIS) spectrophotometer (TECAN infinite M200 PRO, Männedorf, Switzerland). […]
The apparent permeability coefficients (Papp) were calculated as Papp=dQ/dt×1/(C“0”A) where dQ/dt (mM/sec) is the rate of permeation of the drug across the cells, C0 (millimolar (mM)) is the donor compartment concentration at time zero and A (cm^2) is the area of the cell monolayer. […] Efflux Ratio (ER)=Papp (B to A)/Papp (A to B), while Papp (B−A) is the Papp value measured in the B to A direction, and Papp (A−B) is the Papp value measured in the A to B direction. […]

As for `O=c1cc(-c2ccccc2)oc2cc(O)c(O)c(O)c12` [baicalein], the “reduction of biliary excretion of silybin” value in series [1] (baicalein at 25 μM, silybin 10 μM) is given as ~75%. Also, the “effect on efflux of silybin” value is recorded as “did not affect the efflux of silybin” with Caco-2 cell monolayers (5 μM baicalein, silybin at 40 μM) and “significantly inhibited the efflux of silybin” with Caco-2 cell monolayers (5 μM baicalein, silybin concentration below 30 μM). The “lowest effective dosage for inhibiting efflux transport of silybin” value with Caco-2 cell monolayers worked out at 0.5 µM.
In the case of `COc1cc([C@H]2Oc3cc([C@H]4Oc5cc(O)cc(O)c5C(=O)[C@@H]4O)ccc3O[C@@H]2CO)ccc1O` [silybin A], in the series on MDCKII-WT cells, the “mean net efflux ratio” value was 1.01. Moreover, in series [1], the “mean BEI (biliary excretion index), free silybin” value stood at 35±4%. Besides, the intrinsic biliary clearance in series [1] (rat, hepatocytes) is given as 2.1±0.2 μl/(min·mg protein). The net efflux ratio at MDR1 (P-gp) is on record as 1.39. In the series on Caco-2 cell monolayers, the PA-B is 0.47±0.03×10^−6 cm/s and the “mean efflux ratio (PB-A/PA-B)” value was determined as 5.05.
In the case of `COc1cc([C@@H]2Oc3cc([C@H]4Oc5cc(O)cc(O)c5C(=O)[C@@H]4O)ccc3O[C@H]2CO)ccc1O` [silybin B], in the series on MDCKII-WT cells, the “mean net efflux ratio” value was found to be 0.99. Further, the “mean BEI (biliary excretion index), free silybin” value in series [1] is given as 33±1%. Besides, the intrinsic biliary clearance in series [1] (rat, hepatocytes) is 2.5±0.4 μl/(min·mg protein). Besides, the net efflux ratio on MDR1 (P-gp) is 1.20. In the series on Caco-2 cell monolayers, the PA-B is 0.45±0.02×10^−6 cm/s and the “mean efflux ratio (PB-A/PA-B)” value is recorded as 4.61.
Regarding `COc1cc(C2Oc3cc([C@H]4Oc5cc(O)cc(O)c5C(=O)[C@@H]4O)ccc3OC2CO)ccc1O` (stereo partly drawn) [silybin], the “permeability of silybin in absence or presence of P-gp, MRP and BCRP efflux inhibitors” value in the series on MDCKII-WT cells (Caco-2) is recorded as “no significant difference”. Further, the “MDR1 (P-gp) substrate status” value on MDR1 (P-gp) (dog, MDCK-MDR1, 180 min, 10 µM) is “is not a substrate for MDR1 (P-gp) efflux transporter”.
In the case of `COc1ccc(-c2cc(=O)c3c(OC)c(OC)c(OC)c(OC)c3o2)cc1` [tangeretin], the “effect on biliary clearance of silybin” value in series [1] (rat, hepatocytes) is reported as “inhibited the biliary clearance of silybin”. In addition, the “effect on efflux of silybin” value in the series on Caco-2 cell monolayers (0.5 μM tangeretin, silybin 2.5 to 40 μM) was “Significant inhibitory effects”. Also, in the series on Caco-2 cell monolayers, the “lowest effective dosage for inhibiting efflux transport of silybin” value was 0.05 µM.

Values taken from US10265298B2, “Method of increasing the bioavailability of silybin” (Macau University of Science and Technology, priority 2017, dated 2019).
